Structures are written as SMILES.

Results on three molecules are retold here after US20220305129A1, “CONJUGATES OF HETEROAROMATIC NITROGEN-COMPRISING COMPOUNDS” (Ascendis Pharma A/S, priority 2019, published 2022).

This data set in a line: In vitro release kinetics: cleavage rate of the reversible bond in aqueous buffer. It counts as physicochemical. To be noted: aqueous buffer (sodium phosphate with acetonitrile), pH 7.4, 37° C., 48 mM sodium phosphate, 20% acetonitrile, disappearance of conjugate by LCMS (UV), read-out: t1/2 (pH 7.4) (converted). Here is the method:
The cleavage rate of the reversible bond from conjugates 6, 10 and 11 was monitored at pH 7.4 and 37° C. in aqueous buffer (pH 7.4 48 mM sodium phosphate, 20% acetonitrile). The disappearance of the conjugate was determined by LCMS (UV detection) and fitted with curve fitting software to obtain the half-life of the release.
`CCOC(c1ccccc1)n1cnc2ccccc21` (stereo not drawn) [Compound 6]: the half-life is 192 h.
Under `CCOC(c1ccc(CC(=O)O)cc1)n1cnc2ccccc21` (stereo not drawn) [Compound 10] stands 10 h; under `CCOC(c1ccccc1)n1ncc2ccccc21` (stereo not drawn) [Compound 11], 137 h.
